Patent US20060088902A1, “Methods and materials for the identification of antifungal substrates in filamentous fungi” (priority 2001, published 2006)

Columns and labels:
Type in all cases: cell-based, Aspergillus niger
gfaA = assay: Northern blot analysis of gfaA expression in CFW stressed germlings; details: germlings treated with 200 μg/ml CFW; RNA 1, 2 and 4 hours after addition; vs untreated germlings
Method: (§1) To identify genes that are induced upon cell wall stress, we have first investigated which cell wall perturbing compound was suited for this purpose. Finally, we used the antifungal compound Calcofluor White (CFW) to induce cell wall stress. […] Because of the defects in cell wall assembly, the cell wall is weakened en swells from internal pressure. Polarized growth is resumed after 2-4 hours. Both the effect of hyphal tip swelling and the time that is required to resume growth are dependent on the concentration of CFW (FIG. 3). To identify genes that are induced upon CFW treatment, mRNA has been isolated from germling that have been treated with or without CFW for various time intervals. […] These germlings were than treated with 200 μg/ml CFW. After 1, 2 and 4 hours after addition of CFW total RNA was isolated and used in Northern blot experiments (see FIG. 4). As a control, total RNA was isolated from germlings that were not treated with CFW. Several probes encoding putative proteins involved in cell wall biosynthesis have been analysed and quantified.
(§2) The highest induction was found for agsA. Thus, these genes are regulated by the promoter sequences as a response to the induced cell wall stress. Such promoters are suitable candidates for use as reporters. […] No signal could be detected for the other ags homologs.

fksA = assay: Northern blot analysis of fksA expression in CFW stressed germlings; details: in the presence of CFW (200 μg/ml)
Method: as §1, §2

[1] = tested on: germinated spores of A. niger; assay: Effect of CFW addition on growth of germlings
Method: FIG. 3: Effect of CFW addition on growth of germlings. Germinated spores of A. niger were treated with increasing concentrations of CFW. Both the extend of hyphal tip swelling and the time required to resume growth is dependent on the concentration of CFW.
as §1

agsA promoter = assay: PagsA-AmdS reporter strain growth on acetamide plates; details: 0.5 mg/ml CFW added to the plates
Text: Aspergillus niger grows poorly on acetamide as a nitrogen source. When additional copies of the amdS gene, encoding a acetamidase of A. nidulans are introduced, A. niger can grown on acetamide plates and the amdS gene can therefore be used as a selectable marker (Kelly and Hynes, 1985). The coding region of the amdS gene was fused to the agsA promoter sequence. Both the relatively low basal expression of the agsA gene and the high level of induction after CFW stress (over 20-fold) makes the agsA promoter a good candidate for use as a reporter. The reporter construct further comprises the amdS gene (A. nidulans) with its own terminator. For targeting to the pyrG locus of the A. niger strain AB4.1 (pyrG^−) the pyrG* gene is included in the construct (cf. Van Gorcum et al., 1988). […]
The construct was transformed to strain AB4.1 (a pyrG negative strain derived from N402) and transformants were selected on the presence of an intact pyrG gene. Wild type strain N402 and purified transformants (ABRD1.1-1.25 and ABRD2.1-2.15) were analysed were grown on acetamide and acrylamide plates. […] The majority of the transformants were analysed by Southern blotting to confirm correct integration of the construct.

## O=S(=O)(O)c1cc(Nc2nc(Nc3ccccc3)nc(N(CCO)CCO)n2)ccc1/C=C/c1ccc(Nc2nc(Nc3ccccc3)nc(N(CCO)CCO)n2)cc1S(=O)(=O)O [CFW, Calcofluor White]
gfaA
  increase in gfaA mRNA level: 4 fold
fksA
  expression level of fksA: not significantly altered
[1]; after CFW treatment, dependent on CFW concentration
  time until polarized growth is resumed: 2 to 4 h
[1]; treatment of germinating spores with CFW, concentration dependent
  hyphal morphology of germinating spores: formation of swollen hyphe
agsA promoter
  growth of PagsA-AmdS transformants on acetamide plates: resulted in growth (and sporulation) for the majority of the transformants
